*1 amine or outer side, *2 acyl side, *3 side chain or, on linkers, in order; H or OH if unused. Where a SMILES comes first, the peptide text is derived from it. [ ]: non-standard residue; d: D form. The star is where a group is joined. Benzenesulfonyl(4-Cl,3-CF3) = O=S(=O)(c1ccc(Cl)c(C(F)(F)F)c1)*; γGlu = O=C(O)[C@H](CCC(=O)[*:2])N[*:1]; β3hP = O=C(O)C[C@@H]1CCCN1
Tests used:
[1] = target: Matrix metalloproteinase-9 (Homo sapiens, UniProt P14780); assay: Inhibition of human recombinant MMP-9 (Ala20 to Asp707 residues) using MOCAc-Pro-Leu-Gly-Leu-A2pr(Dnp)-Ala-Arg-NH2 as fluorogenic substrate preincubated for 15 mins followed by substrate addition by fluorescence based analysis
Matrix metalloproteinase-9, sequence (P14780 whole entry): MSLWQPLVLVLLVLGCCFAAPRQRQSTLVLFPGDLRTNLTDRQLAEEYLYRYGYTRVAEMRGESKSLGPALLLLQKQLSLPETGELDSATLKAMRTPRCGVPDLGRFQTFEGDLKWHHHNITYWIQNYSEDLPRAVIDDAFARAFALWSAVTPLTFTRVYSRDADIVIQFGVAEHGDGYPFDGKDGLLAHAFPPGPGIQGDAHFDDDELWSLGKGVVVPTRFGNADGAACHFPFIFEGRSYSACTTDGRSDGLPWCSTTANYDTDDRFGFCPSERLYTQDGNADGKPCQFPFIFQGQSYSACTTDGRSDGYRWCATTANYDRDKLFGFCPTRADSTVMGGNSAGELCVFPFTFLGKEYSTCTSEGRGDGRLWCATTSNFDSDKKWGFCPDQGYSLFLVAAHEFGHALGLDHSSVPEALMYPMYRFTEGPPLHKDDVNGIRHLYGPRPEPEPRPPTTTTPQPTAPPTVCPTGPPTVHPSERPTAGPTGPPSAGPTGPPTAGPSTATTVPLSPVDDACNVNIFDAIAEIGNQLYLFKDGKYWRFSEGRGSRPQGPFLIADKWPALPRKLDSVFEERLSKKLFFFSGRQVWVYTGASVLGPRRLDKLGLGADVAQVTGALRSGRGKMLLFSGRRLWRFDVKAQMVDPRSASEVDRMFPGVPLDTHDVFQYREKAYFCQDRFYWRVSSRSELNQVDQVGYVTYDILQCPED

[2] = target: 72 kDa type IV collagenase (Homo sapiens, UniProt P08253); assay: Inhibition of human recombinant MMP-2 ( Ile34 to Cys660 residues) using MOCAc-Pro-Leu-Gly-Leu-A2pr(Dnp)-Ala-Arg-NH2 as fluorogenic substrate preincubated for 15 mins followed by substrate addition by fluorescence based analysis
72 kDa type IV collagenase, sequence (P08253 whole entry): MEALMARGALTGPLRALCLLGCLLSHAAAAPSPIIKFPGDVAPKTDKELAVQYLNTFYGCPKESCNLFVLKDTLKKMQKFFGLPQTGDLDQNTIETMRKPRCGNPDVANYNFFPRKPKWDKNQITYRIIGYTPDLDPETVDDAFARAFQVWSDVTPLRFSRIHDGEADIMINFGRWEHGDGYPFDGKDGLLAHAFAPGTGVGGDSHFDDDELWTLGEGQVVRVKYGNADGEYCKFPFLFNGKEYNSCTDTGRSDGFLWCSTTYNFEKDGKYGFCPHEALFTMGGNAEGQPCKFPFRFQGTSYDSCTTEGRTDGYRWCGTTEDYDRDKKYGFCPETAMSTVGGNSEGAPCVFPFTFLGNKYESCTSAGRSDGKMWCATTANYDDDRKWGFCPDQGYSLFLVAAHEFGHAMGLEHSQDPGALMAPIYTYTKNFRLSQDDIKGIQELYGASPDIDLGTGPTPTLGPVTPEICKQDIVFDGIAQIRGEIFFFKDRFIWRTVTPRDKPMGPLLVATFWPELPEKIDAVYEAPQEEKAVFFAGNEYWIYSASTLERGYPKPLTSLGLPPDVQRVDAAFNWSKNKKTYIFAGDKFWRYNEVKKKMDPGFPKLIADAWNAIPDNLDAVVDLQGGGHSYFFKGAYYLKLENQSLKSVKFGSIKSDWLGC

Stromelysin-1 = Stromelysin-1 (Homo sapiens, UniProt P08254); assay: Inhibition of human recombinant MMP-3 (Tyr18 to Cys477 residues ) using MOCAc-Arg-Pro-Lys-Pro-Val-Glu-Nva-Trp-Arg-Lys(Dnp)-NH2 as fluorogenic substrate preincubated for 15 mins followed by substrate addition by fluorescence based analysis
Stromelysin-1, sequence (P08254 whole entry): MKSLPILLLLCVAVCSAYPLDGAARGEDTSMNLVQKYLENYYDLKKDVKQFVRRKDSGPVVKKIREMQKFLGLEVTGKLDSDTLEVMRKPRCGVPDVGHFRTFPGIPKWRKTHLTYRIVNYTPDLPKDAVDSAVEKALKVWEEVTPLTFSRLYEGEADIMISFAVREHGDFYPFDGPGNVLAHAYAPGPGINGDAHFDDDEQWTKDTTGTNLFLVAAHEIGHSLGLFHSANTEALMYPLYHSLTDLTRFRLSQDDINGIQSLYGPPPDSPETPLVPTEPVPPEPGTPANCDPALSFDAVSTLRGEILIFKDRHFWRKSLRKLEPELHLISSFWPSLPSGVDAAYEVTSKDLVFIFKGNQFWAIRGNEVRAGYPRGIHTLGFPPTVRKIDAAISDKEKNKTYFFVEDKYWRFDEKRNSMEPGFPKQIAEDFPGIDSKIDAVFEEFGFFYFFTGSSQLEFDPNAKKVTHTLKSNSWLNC

[3] = target: Macrophage metalloelastase (Homo sapiens, UniProt P39900); assay: Inhibition of human recombinant MMP-12 (Leu17 to Cys470 residues) using MOCAc-Pro-Leu-Gly-Leu-A2pr(Dnp)-Ala-Arg-NH2 as fluorogenic substrate preincubated for 15 mins followed by substrate addition by fluorescence based analysis
Macrophage metalloelastase, sequence (P39900 whole entry): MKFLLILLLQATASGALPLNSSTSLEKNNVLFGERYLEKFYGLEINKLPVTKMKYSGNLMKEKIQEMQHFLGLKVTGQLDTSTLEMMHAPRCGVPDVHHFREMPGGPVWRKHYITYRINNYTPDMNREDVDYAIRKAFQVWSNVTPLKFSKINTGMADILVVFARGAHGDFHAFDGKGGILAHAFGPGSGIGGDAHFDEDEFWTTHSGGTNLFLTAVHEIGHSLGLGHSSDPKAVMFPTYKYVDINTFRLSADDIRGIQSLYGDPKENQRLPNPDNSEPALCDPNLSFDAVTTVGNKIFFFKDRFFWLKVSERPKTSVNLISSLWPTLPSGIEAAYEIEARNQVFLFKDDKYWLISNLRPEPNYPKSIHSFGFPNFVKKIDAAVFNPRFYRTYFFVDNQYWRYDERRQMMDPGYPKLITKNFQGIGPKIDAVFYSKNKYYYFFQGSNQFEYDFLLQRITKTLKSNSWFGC

Matrilysin = target: T1, Matrilysin (Homo sapiens, UniProt P09237); assay: Inhibition of human recombinant MMP-7 (Leu18 to Lys267 residues) using MOCAc-Pro-Leu-Gly-Leu-A2pr(Dnp)-Ala-Arg-NH2 as fluorogenic substrate preincubated for 15 mins followed by substrate addition by fluorescence based analysis
T1 sequence (P09237 whole entry): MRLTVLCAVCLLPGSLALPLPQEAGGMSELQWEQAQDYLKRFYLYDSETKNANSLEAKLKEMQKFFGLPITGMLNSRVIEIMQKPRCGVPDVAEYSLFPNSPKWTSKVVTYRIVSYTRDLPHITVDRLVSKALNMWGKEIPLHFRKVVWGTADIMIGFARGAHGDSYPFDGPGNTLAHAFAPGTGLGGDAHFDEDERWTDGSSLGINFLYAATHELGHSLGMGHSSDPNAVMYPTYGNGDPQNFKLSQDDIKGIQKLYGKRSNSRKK

[4] = target: Matrix metalloproteinase-14 (Homo sapiens, UniProt P50281); assay: Inhibition of human recombinant C-terminal 10-His tagged MMP-14 ( Ala21 to Gly284 residues) using MOCAc-Lys-Pro-Leu-Gly-Leu-A2pr(Dnp)-Ala-Arg-NH2 as fluorogenic substrate preincubated for 15 mins followed by substrate addition by fluorescence based analysis
Neutrophil collagenase = Neutrophil collagenase (Homo sapiens, UniProt P22894); assay: Inhibition of human recombinant MMP-8 (Phe21 to Gly467 residues) using MOCAc-Pro-Leu-Gly-Leu-A2pr(Dnp)-Ala-Arg-NH2 as fluorogenic substrate preincubated for 15 mins followed by substrate addition by fluorescence based analysis
Neutrophil collagenase, sequence (P22894 whole entry): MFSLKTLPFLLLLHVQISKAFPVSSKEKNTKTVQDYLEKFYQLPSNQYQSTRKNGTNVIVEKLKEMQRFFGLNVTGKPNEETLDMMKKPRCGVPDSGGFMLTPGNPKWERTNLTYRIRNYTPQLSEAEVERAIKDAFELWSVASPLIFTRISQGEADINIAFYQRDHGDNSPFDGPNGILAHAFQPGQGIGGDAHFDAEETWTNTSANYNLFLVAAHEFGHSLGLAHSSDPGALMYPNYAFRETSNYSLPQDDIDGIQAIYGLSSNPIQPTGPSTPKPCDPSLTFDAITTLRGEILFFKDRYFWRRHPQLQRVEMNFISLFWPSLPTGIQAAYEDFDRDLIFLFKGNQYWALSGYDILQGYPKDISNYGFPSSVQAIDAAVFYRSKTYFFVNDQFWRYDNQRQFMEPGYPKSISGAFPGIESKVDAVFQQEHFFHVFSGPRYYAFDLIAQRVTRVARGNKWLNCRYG

Collagenase 3 = Collagenase 3 (Homo sapiens, UniProt P45452); assay: Inhibition of human recombinant MMP-13 (Leu20 to Cys471 residues) using MOCAc-Pro-Leu-Gly-Leu-A2pr(Dnp)-Ala-Arg-NH2 as fluorogenic substrate preincubated for 15 mins followed by substrate addition by fluorescence based analysis
Interstitial collagenase = target: T2, Interstitial collagenase (Homo sapiens, UniProt P03956); assay: Inhibition of human recombinant MMP-1 (Phe20 to Asn469 residue) using MOCAc-Lys-Pro-Leu-Gly-Leu-A2pr(Dnp)-Ala-Arg-NH2 as fluorogenic substrate preincubated for 15 mins followed by substrate addition by fluorescence based analysis
T2 sequence (P03956 whole entry): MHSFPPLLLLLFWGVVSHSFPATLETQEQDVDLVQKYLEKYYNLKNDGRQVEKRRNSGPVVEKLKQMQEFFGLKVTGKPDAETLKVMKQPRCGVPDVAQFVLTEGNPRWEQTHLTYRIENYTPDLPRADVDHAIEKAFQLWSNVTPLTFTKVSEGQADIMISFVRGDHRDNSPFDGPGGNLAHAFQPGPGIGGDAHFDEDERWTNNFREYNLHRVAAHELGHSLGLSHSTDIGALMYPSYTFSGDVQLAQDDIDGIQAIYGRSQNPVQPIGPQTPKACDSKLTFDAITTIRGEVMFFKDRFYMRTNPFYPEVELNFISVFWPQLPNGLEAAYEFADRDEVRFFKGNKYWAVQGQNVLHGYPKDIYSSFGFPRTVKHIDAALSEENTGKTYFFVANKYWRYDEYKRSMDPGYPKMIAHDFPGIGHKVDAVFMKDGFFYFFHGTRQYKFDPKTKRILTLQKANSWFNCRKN

[5] = Stability in human serum incubated for 4 hrs by liquid chromatography-tandem mass spectrometry; format: ADME, cell-free
[6] = Stability in human liver microsomes at 1 uM incubated for 15 mins by liquid chromatography-mass spectrometry; format: ADME, Microsome; conditions: 0.25 h
Homo sapiens [7] = species on record: Homo sapiens; assay: Selectivity index, ratio of IC50 for human recombinant MMP-12 to IC50 for human recombinant MMP-7
Homo sapiens [8] = species on record: Homo sapiens; assay: Selectivity index, ratio of IC50 for human recombinant MMP-14 to IC50 for human recombinant MMP-7

## CSCC[C@H](NC(=O)[C@H](CC(C)C)NC(=O)[C@H](C)NC(=O)CC[C@H](NS(=O)(=O)c1ccc(Cl)c(C(F)(F)F)c1)C(=O)O)C(N)=O
[1]
  IC50: > 100 µM
[2]
  IC50: > 100 µM
Stromelysin-1
  IC50: > 100 µM
[3]
  IC50: 40 µM
Matrilysin
  IC50: 0.44 µM
[4]
  IC50: > 100 µM
Neutrophil collagenase
  IC50: > 100 µM
Collagenase 3
  IC50: > 100 µM

## O=C(O)[C@H](CCc1ccccc1)NS(=O)(=O)c1ccc(Cl)c(C(F)(F)F)c1
[1]
  IC50: > 100 µM
[2]
  IC50: > 100 µM
Stromelysin-1
  IC50: > 100 µM
[3]
  IC50: > 100 µM
Interstitial collagenase
  IC50: > 100 µM
Matrilysin
  IC50: 6.1 µM
[4]
  IC50: > 100 µM
Neutrophil collagenase
  IC50: > 100 µM
Collagenase 3
  IC50: > 100 µM

## CSCC[C@H](NC(=O)[C@H](CC(C)C)NC(=O)[C@H](CCC(N)=O)NC(=O)CC[C@H](NS(=O)(=O)c1ccc(Cl)c(C(F)(F)F)c1)C(=O)O)C(N)=O
Matrilysin
  IC50: 1.3 µM

## CC(C)C[C@H](NC(=O)CNC(=O)CC[C@H](NS(=O)(=O)c1ccc(Cl)c(C(F)(F)F)c1)C(=O)O)C(=O)N[C@H](C(=O)N1CCC[C@H]1CC(N)=O)C(C)C ({Benzenesulfonyl(4-Cl,3-CF3)-γGlu}-GLV[β3hP]-NH2)
[1]
  IC50: > 100 µM
[5]
  Stability: Stable
[2]
  IC50: 11 µM
[6]
  Stability: Stable
Stromelysin-1
  IC50: > 100 µM
[3]
  IC50: 2.9 µM
Homo sapiens [7]
  Ratio IC50: 290
Matrilysin
  IC50: 0.01 µM
[4]
  IC50: 0.45 µM
Homo sapiens [8]
  Ratio IC50: 45
Neutrophil collagenase
  IC50: 59 µM
Collagenase 3
  IC50: > 100 µM

## CC(C)C[C@H](NC(=O)[C@H](C)NC(=O)CC[C@H](NS(=O)(=O)c1ccc(Cl)c(C(F)(F)F)c1)C(=O)O)C(=O)N[C@@H](C)C(N)=O
Matrilysin
  IC50: 1.7 µM

## CSCC[C@H](NC(=O)[C@H](CC(C)C)NC(=O)[C@H](CO)NC(=O)CC[C@H](NS(=O)(=O)c1ccc(Cl)c(C(F)(F)F)c1)C(=O)O)C(N)=O
Matrilysin
  IC50: 5.7 µM

## CSCC[C@H](NC(=O)[C@H](Cc1ccccc1)NC(=O)CNC(=O)CC[C@H](NS(=O)(=O)c1ccc(Cl)c(C(F)(F)F)c1)C(=O)O)C(N)=O
Matrilysin
  IC50: 0.11 µM

## CC(C)C[C@H](NC(=O)CNC(=O)CC[C@H](NS(=O)(=O)c1ccc(Cl)c(C(F)(F)F)c1)C(=O)O)C(=O)N[C@H](C(=O)N[C@@H](C)C(N)=O)C(C)C ({Benzenesulfonyl(4-Cl,3-CF3)-γGlu}-GLVA-NH2)
[1]
  IC50: > 100 µM
[5]
  Stability: Stable
[2]
  IC50: 33 µM
[6]
  Stability: Stable
Stromelysin-1
  IC50: > 100 µM
[3]
  IC50: 12 µM
Interstitial collagenase
  IC50: > 100 µM
Matrilysin
  IC50: 0.016 µM
[4]
  IC50: 11 µM
Neutrophil collagenase
  IC50: > 100 µM
Collagenase 3
  IC50: > 100 µM

## CC(C)C[C@H](NC(=O)CNC(=O)CC[C@H](NS(=O)(=O)c1ccc(Cl)c(C(F)(F)F)c1)C(=O)O)C(=O)N[C@H](C(=O)N1CCC[C@H]1C(N)=O)C(C)C ({Benzenesulfonyl(4-Cl,3-CF3)-γGlu}-GLVP-NH2)
Matrilysin
  IC50: 0.019 µM

## CSCC[C@H](NC(=O)[C@H](C)NC(=O)[C@H](C)NC(=O)CC[C@H](NS(=O)(=O)c1ccc(Cl)c(C(F)(F)F)c1)C(=O)O)C(N)=O
Matrilysin
  IC50: 6.7 µM

## CSCC[C@H](NC(=O)[C@H](CC(C)C)NC(=O)CNC(=O)CC[C@H](NS(=O)(=O)c1ccc(Cl)c(C(F)(F)F)c1)C(=O)O)C(N)=O
[1]
  IC50: > 100 µM
[2]
  IC50: 73 µM
Stromelysin-1
  IC50: > 100 µM
[3]
  IC50: 20 µM
Matrilysin
  IC50: 0.12 µM
[4]
  IC50: 25 µM
Neutrophil collagenase
  IC50: > 100 µM
Collagenase 3
  IC50: > 100 µM

## CSCC[C@H](NC(=O)[C@H](CC(C)C)NC(=O)[C@H](CC(N)=O)NC(=O)CC[C@H](NS(=O)(=O)c1ccc(Cl)c(C(F)(F)F)c1)C(=O)O)C(N)=O
Matrilysin
  IC50: 7.5 µM

## CSCC[C@H](NC(=O)[C@H](CC(C)C)NC(=O)[C@H](CC(C)C)NC(=O)CC[C@H](NS(=O)(=O)c1ccc(Cl)c(C(F)(F)F)c1)C(=O)O)C(N)=O
Matrilysin
  IC50: 0.78 µM

## CC(C)C[C@H](NC(=O)CNC(=O)CC[C@H](NS(=O)(=O)c1ccc(Cl)c(C(F)(F)F)c1)C(=O)O)C(=O)N[C@H](C(N)=O)C(C)C
[1]
  IC50: > 100 µM
[2]
  IC50: 45 µM
Stromelysin-1
  IC50: > 100 µM
[3]
  IC50: 28 µM
Interstitial collagenase
  IC50: > 100 µM
Matrilysin
  IC50: 0.056 µM
[4]
  IC50: 17 µM
Neutrophil collagenase
  IC50: > 100 µM
Collagenase 3
  IC50: > 100 µM

## CSCC[C@H](NC(=O)[C@H](CC(C)C)NC(=O)[C@H](C)NC(=O)C[C@H](NS(=O)(=O)c1ccc(Cl)c(C(F)(F)F)c1)C(=O)O)C(N)=O
Matrilysin
  IC50: 4.7 µM
